From US20240254510A1, “METHODS FOR GENERATING MECHANICALLY-RESPONSIVE CELLS AND USES THEREOF” (Washington University, priority 2021, published 2024)

Key:
TRPV4 [1] = biological target: T1, TRPV4 (Sus scrofa, UniProt B3VP30); test: Microarray transcriptomic profile of engineered cartilage after mechanical loading or GSK101; assay type: cell-based, porcine
T1 construct: endogenous in cells; host or cells: primary porcine articular chondrocytes (femurs of pigs from a local abattoir)
Source text: TRPV4 activation in chondrocytes induces transient anabolic and inflammatory signaling networks: Next, it was sought to understand the time course of specific downstream signaling pathways and GRNs regulated by mechanical activation of TRPV4 using microarray analysis. Because TRPV4 is a multimodal channel, downstream signaling is likely dependent on the activation mode as well as cell and tissue type. For these studies, primary porcine chondrocytes were cast in agarose to create engineered cartilage constructs and subjected to either compressive mechanical loading [10% sinusoidal peak-to-peak strain at 1 Hz for 3 hours as described previously] or pharmacologic stimulation with the TRPV4 agonist GSK101 (1 nM for 3 hours), or left unloaded (free-swelling controls), and measured the transcriptional activity at 0, 3, 12, and 20 hours following an initial round of stimulation and then at 24 and 72 hours after additional daily bouts of mechanical loading or GSK101 (n=3 per condition per time point; FIG. 3A). […] Up-regulation of these targets was immediate and subsided quickly, with transcript levels returning to baseline 12 to 20 hours after activation.
Microarray collection and analysis: After a 14-day preculture, engineered cartilage constructs (04 mm×2.25 mm) were stimulated under 10% compressive loading or 1 nM GSK101 for 3 hours per day for 3 days. Unstimulated controls (free-swelling) constructs were cultured under identical conditions. Immediately after stimulation, constructs were washed and then fed with culture medium. Constructs were snap-frozen in liquid N2 at 0, 3, 6, 12, 20, 24, and 72 hours after initial stimulation. Total RNA was extracted from the constructs using a pestle homogenizer and the Norgen Biotek RNA/protein purification plus kit. RNA quantity and quality were assessed with NanoDrop (Thermo Fisher Scientific) and the Agilent Bioanalyzer. Total RNA was processed using the Ambion WT expression labeling kit and the Porcine Gene 1.0 ST Array (Affymetrix). […]

TRPV4 [2] = biological target: T1, TRPV4; test: IL-1Ra production by mechanogenetic cartilage constructs (ELISA); assay type: cell-based, porcine; conditions: NFKBr-IL1Ra tissues, 1 nM GSK101 3 hours/day over 5 days vs DMSO
Source text: Synthetic mechanogenetic circuits respond to TRPV4 activation to drive transgene expression: TRPV4 activation in response to mechanical loading up-regulates a diverse group of targeted genes. On the basis of the TRPV4-activated signaling pathway, activation of the nuclear factor κ light chain enhancer of activated B cells (NF-κB) pathway was identified and up-regulation of the prostaglandin-endoperoxide synthase 2 (PTGS2) gene as two distinct avenues to construct TRPV4-responsive synthetic mechanogenetic gene circuits. […]
Osmotic stimulation—For calcium imaging studies, osmotic loading media were prepared using Hanks' balanced salt solution medium (Gibco). […] These media were titrated to hypo-osmotic media by adding distilled water and measured with a freezing point osmometer (Osmette 2007; Precision Systems). […]
Mechanogenetic circuit testing outcome measures: Assessing mechanogenetic tissue construct activation in IL-1Ra-producing constructs was measured with an enzyme-linked immunosorbent assay for mouse IL-1Ra (R&D Systems) according to the manufacturer's protocols. […]

TRPV4 [3] = test: RNA-sequencing of tissue engineered cartilage: mechanical loading, GSK101, IL-1α; assay type: cell-based; conditions: GSK101 TRPV4 activation, 24 hour time course
Experimental: RNA-sequencing was performed to assess mechanically-sensitive gene targets that are distinct from a cellular inflammation response. […] Targets of interest were selected as targets that were shared between stimulation to mechanical loading and GSK101 agonist activation of TRPV4 but not stimulated by IL-1α inflammation.

Piezo1 = test: RNA-seq of tissue engineered cartilage after 80% strain or Yoda1 stimulation; assay type: cell-based; conditions: 80% strain or Yoda1, RNA-seq
Experimental: Tissue engineered cartilage tissues were either mechanically loaded to 80% strain or stimulated with the Piezo1 agonist Yoda1. Control tissues (FS group) were cultured in vehicle control media and left under free-swelling (non loaded) conditions. RNA-seq was used to assess the transcriptomic regulation to high mechanical loading or Yoda1-stimulation.
Volcano plot projections of gene targets that are differentially regulated by mechanical loading to 80% strain (FIG. 9 left graph) or Yoda1 stimulation (FIG. 9 right graph) display a range of targets that are regulated by Piezo1 stimulation (targets highlighted in red are |LFC|>1 and FDR (padj)<0.05).

T1 sequence (B3VP30 1-871): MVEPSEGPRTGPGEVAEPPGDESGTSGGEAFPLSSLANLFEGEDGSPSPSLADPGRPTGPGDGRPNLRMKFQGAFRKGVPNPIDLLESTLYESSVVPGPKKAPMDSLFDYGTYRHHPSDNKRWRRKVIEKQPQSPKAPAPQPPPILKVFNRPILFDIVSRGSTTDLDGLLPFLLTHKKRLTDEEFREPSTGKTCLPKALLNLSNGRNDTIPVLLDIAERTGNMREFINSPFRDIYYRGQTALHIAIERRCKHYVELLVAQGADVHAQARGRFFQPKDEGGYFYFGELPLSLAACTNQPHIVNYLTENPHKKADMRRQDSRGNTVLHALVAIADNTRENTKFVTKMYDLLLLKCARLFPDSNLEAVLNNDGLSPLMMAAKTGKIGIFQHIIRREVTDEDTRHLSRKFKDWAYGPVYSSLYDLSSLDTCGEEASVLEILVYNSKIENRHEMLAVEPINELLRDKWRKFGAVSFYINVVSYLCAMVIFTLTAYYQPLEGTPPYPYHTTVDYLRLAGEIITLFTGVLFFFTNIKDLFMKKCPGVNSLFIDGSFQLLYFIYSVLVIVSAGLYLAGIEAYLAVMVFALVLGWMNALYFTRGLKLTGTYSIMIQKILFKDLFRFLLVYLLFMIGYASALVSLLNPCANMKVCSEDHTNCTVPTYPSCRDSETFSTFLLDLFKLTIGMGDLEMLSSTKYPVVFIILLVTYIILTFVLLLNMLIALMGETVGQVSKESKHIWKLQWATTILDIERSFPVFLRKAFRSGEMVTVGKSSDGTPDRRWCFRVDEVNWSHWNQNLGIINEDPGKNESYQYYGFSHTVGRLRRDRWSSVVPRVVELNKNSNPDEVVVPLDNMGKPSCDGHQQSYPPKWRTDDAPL

Compound | genes commonly responsive to both mechanical loading and pharmacologic activation of TRPV4 (TRPV4 [1]; 0, 24 and 72 hours) [genes] | transcripts repeatedly responsive to GSK101 supplementation (TRPV4 [1]; 0, 24 and 72 hours, daily bouts of 1 nM GSK101) [transcripts] | transcripts up-regulated under both mechanical loading and pharmacologic stimulation (TRPV4 [1]; first 20 hours after initial stimulation, GSK101 1 nM for 3 hours, vs unloaded controls) [transcripts] | circuit response to pharmacologic activation of TRPV4 (TRPV4 [2]) | regulation of FGF1, PMEPA1 and snora70 (TRPV4 [3]) | gene targets similarly regulated by mechanical loading and Yoda1 stimulation (Piezo1)
CC(C)C[C@H](NC(=O)c1cc2ccccc2s1)C(=O)N1CCN(C(=O)[C@H](CO)NS(=O)(=O)c2ccc(Cl)cc2Cl)CC1 [GSK101] | 15 | 112 | 43 | activated the NFKBr-IL1Ra circuit | significantly upregulated | 
Clc1cccc(Cl)c1CSc1nnc(-c2cnccn2)s1 [Yoda1] |  |  |  |  |  | ADAMTS1, IGSF9B, PTGS2, NR4A2, LOC100512181, NR4A1, INHBA, and CSRNP2
